Patent US20130344026A1, “Dimeric Smac Mimetics” (priority 2009, published 2013)
Read-outs that look alike come from different tables or passages of the source.

How the values were obtained:
HCC461 = test: cell viability assay in HCC461, compound alone; type: cell-based
PANC-1 cells = test: cell viability assay in PANC-1 cells (compound alone, + 100 ng/ml TNFa, + 300 ng/ml TRAIL); type: cell-based
[1] = HCC461, HCC461, Tables 6-9, read-out: IC50 (μM) in cell viability assay in HCC461
[2] = HCC461, HCC461, Tables 15-18, read-out: IC50 (uM) in cell viability assay in HCC461
[3] = Homo sapiens, PANC-1, compound alone, Tables 6-10, read-out: IC50 (μM) in cell viability assay in PANC-1 cells: Compound alone
[4] = with 100 ng/ml TNFa, Tables 6-10, read-out: IC50 (μM) in cell viability assay in PANC-1 cells: Compound + 100 ng/ml TNFa
[5] = with 300 ng/ml TRAIL, Tables 6-10, read-out: IC50 (μM) in cell viability assay in PANC-1 cells: Compound + 300 ng/ml TRAIL

`CCC[C@H](NC(=O)[C@H](C)NC)C(=O)N1C[C@@H](NC(=O)c2cccc(C(=O)N[C@H]3C[C@@H](C(=O)N[C@@H]4CCCc5ccccc54)N(C(=O)[C@@H](NC(=O)[C@H](C)NC)C(C)(C)C)C3)c2)C[C@H]1C(=O)N1CCCC1` [Compound 155] showed an IC50 (HCC461; [1]) of 0.467 µM.

`CN[C@@H](C)C(=O)N[C@@H](CCCCNc1nc(NCCCC[C@H](NC(=O)[C@H](C)NC)C(=O)N2CCC[C@H]2C(=O)N[C@@H]2CCCc3ccccc32)nc(OC)n1)C(=O)N1CCC[C@H]1C(=O)N[C@@H]1CCCc2ccccc21` [Compound P2-32] gave an IC50 (HCC461; [2]) of 0.038 µM.

Molecule `CN[C@@H](C)C(=O)N[C@@H](CCCCNC(=O)c1cc(O)cc(C(=O)NCCCC[C@H](NC(=O)[C@H](C)NC)C(=O)N2CCC[C@H]2C(=O)N[C@@H]2CCCc3ccccc32)c1)C(=O)N1CCC[C@H]1C(=O)N[C@@H]1CCCc2ccccc21` [Compound P2-25] has an IC50 (HCC461; [2]) of 0.086 µM.

`CN[C@@H](C)C(=O)N[C@@H](CCCCCC[C@H](NC(=O)[C@H](C)NC)C(=O)N1CCC[C@H]1C(=O)NCc1ccc(F)cc1)C(=O)N1CCC[C@H]1C(=O)NCc1ccc(F)cc1` [Compound P2-7] showed an IC50 (HCC461; [2]) of 0.17 µM.

Molecule `CN[C@@H](CO)C(=O)N[C@@H](CC#CC#CC[C@H](NC(=O)[C@H](CO)NC)C(=O)N1CCC[C@H]1C(=O)NC1c2ccccc2-c2ccccc21)C(=O)N1CCC[C@H]1C(=O)NC1c2ccccc2-c2ccccc21` [Compound P2-17] has an IC50 (HCC461; [2]) of 0.134 µM.

For `CN[C@@H](C)C(=O)N[C@H](C(=O)N1C[C@@H](NC(=O)C[C@H](NC(C)=O)C(=O)N[C@H]2C[C@@H](C(=O)N[C@@H]3CCCc4ccccc43)N(C(=O)[C@@H](NC(=O)[C@H](C)NC)C(C)(C)C)C2)C[C@H]1C(=O)N[C@@H]1CCCc2ccccc21)C(C)(C)C` [Compound P3-67], the IC50 (HCC461; HCC461, HCC461 cells, compound alone, read-out: IC50 (uM) in cell viability assay in HCC461) was 0.214 µM.

With `CN[C@@H](C)C(=O)N[C@H](C(=O)N1C[C@@H](NC(=O)CC[C@@H](NC(=O)[C@H](NC(=O)[C@@H](C)NC)C(C)(C)C)C(=O)N[C@H]2CCCc3ccccc32)C[C@H]1C(=O)N[C@@H]1CCCc2ccccc21)C(C)(C)C` [Compound 157] the IC50 (HCC461; [1]) was 0.03 µM.

Work on `CCC[C@H](NC(=O)[C@H](C)NC)C(=O)N1C[C@@H](NC(=O)c2cccc(C(=O)N[C@H]3C[C@@H](C(=O)N[C@@H]4CCCc5ccccc54)N(C(=O)[C@@H](NC(=O)[C@H](C)NC)C(C)(C)C)C3)c2)C[C@H]1C(=O)N1CCCCC1` [Compound 141] yielded an IC50 (HCC461; [1]) of 0.109 µM.

Molecule `CC[C@H](NC)C(=O)N[C@@H](CCCCCC[C@H](NC(=O)[C@H](CC)NC)C(=O)N1CCC[C@H]1C(=O)N[C@@H]1CCCc2ccccc21)C(=O)N1CCC[C@H]1C(=O)N[C@@H]1CCCc2ccccc21` [Compound P2-12] has an IC50 (HCC461; [2]) of 0.021 µM.

Molecule `CN[C@@H](C)C(=O)N[C@H](C(=O)N1C[C@@H](NC(=O)C2CCCC(C(=O)N[C@H]3C[C@@H](C(=O)N[C@H](C)c4ccccc4)N(C(=O)[C@@H](NC(=O)[C@H](C)NC)C(C)(C)C)C3)C2)C[C@H]1C(=O)N[C@H](C)c1ccccc1)C(C)(C)C` (stereo partly drawn) [Compound P3-102] has an IC50 (PANC-1 cells; PANC-1 cells, + 100 ng/ml TNFa, read-out: IC50 (uM) in cell viability assay in PANC-1 cells, Cmpnd + 100 ng/ml TNFa) of 0.017 µM, an IC50 (PANC-1 cells; PANC-1 cells, + 300 ng/ml TRAIL, read-out: IC50 (uM) in cell viability assay in PANC-1 cells, Cmpnd + 300 ng/ml TRAIL) of 0.023 µM and an IC50 (PANC-1 cells; PANC-1 cells, compound alone, read-out: IC50 (uM) in cell viability assay in PANC-1 cells, Cmpnd alone) greater than 1 µM.

For `CN[C@@H](C)C(=O)N[C@H](C(=O)N1C[C@@H](NC(=O)CC[C@@H](NC(=O)[C@H](NC(=O)[C@@H](C)NC)C(C)C)C(=O)N[C@@H](C)C(C)C)C[C@H]1C(=O)N[C@H](C)c1ccccc1)C(C)C` [Compound 168], the IC50 (PANC-1 cells; [3]) was greater than 1 µM, the IC50 (PANC-1 cells; [4]) was greater than 1 µM and the IC50 (PANC-1 cells; [5]) was greater than 1 µM.

With `CN[C@@H](C)C(=O)N[C@@H](CCCCCC[C@H](NC(=O)[C@H](C)NC)C(=O)N1CC[C@H]1C(=O)N[C@@H]1CCCc2ccccc21)C(=O)N1CC[C@H]1C(=O)N[C@@H]1CCCc2ccccc21` [Compound 102] the IC50 (PANC-1 cells; [3]) was greater than 1 µM, the IC50 (PANC-1 cells; [4]) was 0.064 µM and the IC50 (PANC-1 cells; [5]) was 0.069 µM.

`CN[C@@H](C)C(=O)Nc1nc(CC(=O)NCCc2cn([C@H]3C[C@@H](C(=O)N[C@@H]4CCCc5ccccc54)N(C(=O)[C@@H](NC(=O)[C@H](C)NC)C(C)(C)C)C3)nn2)cs1` [Compound 195] gave an IC50 (PANC-1 cells; [3]) greater than 1 µM, an IC50 (PANC-1 cells; [4]) greater than 1 µM and an IC50 (PANC-1 cells; [5]) greater than 1 µM.

`CN[C@@H](C)C(=O)N[C@H](C(=O)N1C[C@@H](NC(=O)c2ccc(C(=O)N3CCN(C(=O)[C@H](C)NC)CC3)cc2)C[C@H]1C(=O)N[C@@H]1CCCc2ccccc21)C(C)(C)C` [Compound 188] showed an IC50 (PANC-1 cells; [3]) greater than 1 µM, an IC50 (PANC-1 cells; [4]) of 0.56 µM and an IC50 (PANC-1 cells; [5]) of 0.55 µM.

`CN[C@@H](C)C(=O)NC(C(=O)N1C[C@@H](NC(=O)c2cccc(C(=O)N[C@H]3CC(C(=O)N[C@H](C)c4cccc5ccccc45)N(C(=O)[C@@H](NC(=O)[C@H](C)NC)C(C)(C)C)C3)c2)CC1C(=O)NC(C)c1cccc2ccccc12)C(C)(C)C` (stereo partly drawn) [Compound 41] was tested, and the IC50 (PANC-1 cells; [3]) was greater than 1 µM, the IC50 (PANC-1 cells; [4]) was 0.452 µM and the IC50 (PANC-1 cells; [5]) was 0.434 µM.

Work on `CN[C@@H](C)C(=O)N[C@@H](CCCCCC[C@H](NC(=O)[C@H](C)NC)C(=O)N1c2ccccc2C[C@H]1C(=O)N[C@@H]1CCCc2ccccc21)C(=O)N1c2ccccc2C[C@H]1C(=O)N[C@@H]1CCCc2ccccc21` [Compound 93] yielded an IC50 (PANC-1 cells; [3]) greater than 1 µM, an IC50 (PANC-1 cells; [4]) of 0.299 µM and an IC50 (PANC-1 cells; [5]) of 0.327 µM.
